Experimental data reported in US8952024B2, “Herbicidal pyrimidone derivatives” (E I du Pont de Nemours and Company, priority 2009, dated 2015).

Assays:
Format in all cases: in vivo
[1] = tested on: morningglory (Ipomoea coccinea); test: Test B pre-/postemergence plant response; conditions: Postemergence
Procedure, shortened: (§1)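 Visual ratings on a 0–100 scale (100 = complete control) were made versus untreated controls 13–15 days after treatment in a greenhouse. Compounds in surfactant-containing non-phytotoxic solvent were applied preemergence to seeds in loam–sand blend or postemergence to 1- to 4-leaf plants (2–18 cm).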

[2] = tested on: ragweed (common ragweed, Ambrosia elatior); test: Test B pre-/postemergence plant response; conditions: Postemergence
Procedure, shortened: as §1

[3] = tested on: Italian ryegrass (Lolium multiflorum); test: Test B pre-/postemergence plant response; conditions: Postemergence
Procedure, shortened: as §1

[4] = tested on: blackgrass (Alopecurus myosuroides); test: Test B pre-/postemergence plant response; conditions: for Blackgrass plant response rating (0 to 100 scale): 62 g ai/ha, postemergence, 0 is no effect, 100 is complete control; for Plant response rating, Blackgrass: Postemergence
Procedure, shortened: as §1

[5] = tested on: bermudagrass (Cynodon dactylon); test: Test B pre-/postemergence plant response; conditions: for Bermudagrass plant response rating (0 to 100 scale): 62 g ai/ha, postemergence, 0 is no effect, 100 is complete control; for Plant response rating, Bermudagrass: Postemergence
Procedure, shortened: as §1

[6] = tested on: cocklebur (Xanthium strumarium); test: Test B pre-/postemergence plant response; conditions: Postemergence
Procedure, shortened: as §1

[7] = tested on: Surinam grass (Brachiaria decumbens); test: Test B pre-/postemergence plant response; conditions: Postemergence
Procedure, shortened: as §1

soybean (Glycine max) = test: Test B pre-/postemergence plant response; conditions: Postemergence
Procedure, shortened: as §1

corn (Zea mays) = test: Test B pre-/postemergence plant response; conditions: Postemergence
Procedure, shortened: as §1

[8] = tested on: ducksalad (Heteranthera limosa); test: Test B flooded paddy test; conditions: for Plant response rating, Ducksalad: Flood (flooded paddy test), 13 to 15 days; for Plant response rating, Flood, Ducksalad: 250 g ai/ha, flooded paddy test, visual rating on 0 to 100 scale (0 no effect, 100 complete control) after 13 to 15 days
Procedure, shortened: (§2)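 2-leaf seedlings; pots flooded 3 cm over soil at treatment; cpd dosed into floodwater, depth kept constant. Greenhouse 13–15 d. Visual rating vs untreated controls, 0 = no effect, 100 = complete control.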

[9] = tested on: barnyardgrass (Echinochloa crus-galli); test: Test B flooded paddy test; conditions: for Plant response rating, Barnyardgrass: Flood (flooded paddy test), 13 to 15 days; for Plant response rating, Flood, Barnyardgrass: 250 g ai/ha, flooded paddy test, visual rating on 0 to 100 scale (0 no effect, 100 complete control) after 13 to 15 days
Procedure, shortened: as §2

[10] = tested on: umbrella sedge (Cyperus difformis); test: Test B flooded paddy test; conditions: for Plant response rating, Sedge, Umbrella: Flood (flooded paddy test), 13 to 15 days; for Plant response rating, Flood, Sedge, Umbrella: 250 g ai/ha, flooded paddy test, visual rating on 0 to 100 scale (0 no effect, 100 complete control) after 13 to 15 days
Procedure, shortened: as §2

rice (Oryza sativa) = test: Test B flooded paddy test; conditions: for Plant response rating, Rice: Flood (flooded paddy test), 13 to 15 days; for Plant response rating, Flood, Rice: 250 g ai/ha, flooded paddy test, visual rating on 0 to 100 scale (0 no effect, 100 complete control) after 13 to 15 days
Procedure, shortened: as §2

[11] = 31 g ai/ha, 0 to 100 scale (0 no effect, 100 complete control)
[12] = 125 g ai/ha, scale 0 to 100 (0 no effect, 100 complete control)
[13] = 250 g ai/ha, scale 0 to 100 (0 no effect, 100 complete control), 13 to 15 days
[14] = 125 g ai/ha, scale 0 to 100, 0 is no effect, 100 is complete control
[15] = Flood, 31 g ai/ha, scale 0 to 100 (0 no effect, 100 complete control)
[16] = 62 g ai/ha, scale of 0 to 100 where 0 is no effect and 100 is complete control

SMILES	Plant response rating, Morningglory [1, 11]	Plant response rating, Morningglory [1, 12]	Plant response rating, Morningglory [1, 13]	Plant response rating, Ragweed [2, 11]	Plant response rating, Ragweed [2, 12]	Plant response rating, Ragweed [2, 13]	Plant response rating, Ryegrass, Italian [3, 11]	Plant response rating, Ryegrass, Italian [3, 12]	Plant response rating, Ryegrass, Italian [3, 13]	Blackgrass plant response rating (0 to 100 scale) ([4]; 13 to 15 days)	Plant response rating, Blackgrass [4, 11]	Plant response rating, Blackgrass [4, 12]	Plant response rating, Blackgrass [4, 13]	Bermudagrass plant response rating (0 to 100 scale) ([5]; 13 to 15 days)	Plant response rating, Bermudagrass [5, 11]	Plant response rating, Bermudagrass [5, 12]	Plant response rating, Bermudagrass [5, 13]	Plant response rating, Cocklebur [6, 11]	Plant response rating, Cocklebur [6, 12]	Plant response rating, Cocklebur [6, 13]	further results
O=C1CCCC(O)=C1C(=O)c1cnc(-c2cc(F)cc(F)c2)n(C2CCCCC2)c1=O [Compound 181]	95	100	100	98	100	100	10	60	65	5	0	15	15	100	100	100	100	100	100	100	Plant response rating, Surinam Grass [7, 11]: 70; Plant response rating, Surinam Grass [7, 12]: 95; Plant response rating, Surinam Grass [7, 13]: 100; Plant response rating, Soybean (soybean (Glycine max); [11]): 100; Plant response rating, Soybean (soybean (Glycine max); [12]): 100; Plant response rating, Soybean (soybean (Glycine max); [13]): 100; Plant response rating, Corn (corn (Zea mays); [11]): 70; Plant response rating, Corn (corn (Zea mays); [12]): 95; Plant response rating, Corn (corn (Zea mays); [13]): 95; Plant response rating, Ducksalad [8, 14]: 90; Ducksalad plant response rating [8, 15]: 85; Plant response rating, Barnyardgrass [9, 14]: 70; Barnyardgrass plant response rating [9, 15]: 0; Plant response rating, Sedge, Umbrella [10, 14]: 85; Sedge, Umbrella plant response rating [10, 15]: 75; Plant response rating, Rice (rice (Oryza sativa); [14]): 65; Rice plant response rating (rice (Oryza sativa); [15]): 0
O=C1CCCC(O)=C1C(=O)c1cnc(-c2cccc(F)c2)n(C2CCCCC2)c1=O [Compound 187]	80	100	100	95	100	100	0	10	30	0	0	5	5	85	75	100	100	100	100	100	Plant response rating, Surinam Grass [7, 11]: 65; Plant response rating, Soybean (soybean (Glycine max); [11]): 98; Plant response rating, Soybean (soybean (Glycine max); [12]): 100; Plant response rating, Soybean (soybean (Glycine max); [13]): 100; Plant response rating, Corn (corn (Zea mays); [11]): 50; Plant response rating, Corn (corn (Zea mays); [12]): 75; Plant response rating, Corn (corn (Zea mays); [13]): 80; Plant response rating, Flood, Ducksalad [8]: 100; Plant response rating, Ducksalad [8, 16]: 95; Plant response rating, Flood, Barnyardgrass [9]: 80; Plant response rating, Barnyardgrass [9, 16]: 45; Plant response rating, Flood, Sedge, Umbrella [10]: 100; Plant response rating, Sedge, Umbrella [10, 16]: 95; Plant response rating, Flood, Rice (rice (Oryza sativa)): 70; Plant response rating, Rice (rice (Oryza sativa); [16]): 15
O=C1CCCC(O)=C1C(=O)c1cnc(-c2cccs2)n(C2CCCCC2)c1=O [Compound 189]	100	100	100	10	75	80	0	5	5	0	0	5	5	15	10	65	70	60	100	100	Plant response rating, Surinam Grass [7, 11]: 65; Plant response rating, Surinam Grass [7, 12]: 80; Plant response rating, Surinam Grass [7, 13]: 85; Plant response rating, Soybean (soybean (Glycine max); [11]): 90; Plant response rating, Soybean (soybean (Glycine max); [12]): 98; Plant response rating, Soybean (soybean (Glycine max); [13]): 100; Plant response rating, Corn (corn (Zea mays); [11]): 20; Plant response rating, Corn (corn (Zea mays); [12]): 35; Plant response rating, Corn (corn (Zea mays); [13]): 45; Plant response rating, Flood, Ducksalad [8]: 100; Plant response rating, Ducksalad [8, 16]: 100; Plant response rating, Flood, Barnyardgrass [9]: 70; Plant response rating, Barnyardgrass [9, 16]: 30; Plant response rating, Flood, Sedge, Umbrella [10]: 100; Plant response rating, Sedge, Umbrella [10, 16]: 95; Plant response rating, Flood, Rice (rice (Oryza sativa)): 60; Plant response rating, Rice (rice (Oryza sativa); [16]): 20
